According to ChEMBL document CHEMBL1764969, “Design, synthesis and structure-activity relationship (SAR) studies of 2,4-disubstituted pyrimidine derivatives: dual activity as cholinesterase and Aβ-aggregation inhibitors” (Bioorg Med Chem, 2011):

Assays:
[1] = molecular target: Acetylcholinesterase (Homo sapiens, UniProt P22303)
Description: Inhibition of human AChE incubated with compounf for 5 mins before addition of substrate acetylthiocholine iodide by Ellman's method

[2] = molecular target: Butyrylcholinesterase (Equus caballus, UniProt Q9N1N9)
Butyrylcholinesterase, sequence (Q9N1N9 whole entry): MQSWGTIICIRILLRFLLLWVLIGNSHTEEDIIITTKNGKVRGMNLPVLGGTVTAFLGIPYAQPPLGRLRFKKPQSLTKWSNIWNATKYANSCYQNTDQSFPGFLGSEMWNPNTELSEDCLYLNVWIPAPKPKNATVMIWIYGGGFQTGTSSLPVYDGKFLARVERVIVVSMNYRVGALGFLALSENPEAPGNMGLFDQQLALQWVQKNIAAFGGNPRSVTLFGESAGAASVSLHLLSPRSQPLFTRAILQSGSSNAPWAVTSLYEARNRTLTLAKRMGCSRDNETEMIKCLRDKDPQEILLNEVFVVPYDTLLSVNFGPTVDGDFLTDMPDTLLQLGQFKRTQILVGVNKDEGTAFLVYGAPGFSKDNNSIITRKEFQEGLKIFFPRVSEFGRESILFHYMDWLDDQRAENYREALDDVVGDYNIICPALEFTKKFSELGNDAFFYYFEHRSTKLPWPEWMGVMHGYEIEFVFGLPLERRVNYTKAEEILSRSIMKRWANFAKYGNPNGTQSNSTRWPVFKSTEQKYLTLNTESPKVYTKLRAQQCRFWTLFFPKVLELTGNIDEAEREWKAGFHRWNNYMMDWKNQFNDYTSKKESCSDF
Description: Inhibition of equine BChE incubated with compounf for 5 mins before addition of substrate S-butyrylthiocholine iodide by Ellman's method

Acetylcholinesterase, sequence (P22303 whole entry): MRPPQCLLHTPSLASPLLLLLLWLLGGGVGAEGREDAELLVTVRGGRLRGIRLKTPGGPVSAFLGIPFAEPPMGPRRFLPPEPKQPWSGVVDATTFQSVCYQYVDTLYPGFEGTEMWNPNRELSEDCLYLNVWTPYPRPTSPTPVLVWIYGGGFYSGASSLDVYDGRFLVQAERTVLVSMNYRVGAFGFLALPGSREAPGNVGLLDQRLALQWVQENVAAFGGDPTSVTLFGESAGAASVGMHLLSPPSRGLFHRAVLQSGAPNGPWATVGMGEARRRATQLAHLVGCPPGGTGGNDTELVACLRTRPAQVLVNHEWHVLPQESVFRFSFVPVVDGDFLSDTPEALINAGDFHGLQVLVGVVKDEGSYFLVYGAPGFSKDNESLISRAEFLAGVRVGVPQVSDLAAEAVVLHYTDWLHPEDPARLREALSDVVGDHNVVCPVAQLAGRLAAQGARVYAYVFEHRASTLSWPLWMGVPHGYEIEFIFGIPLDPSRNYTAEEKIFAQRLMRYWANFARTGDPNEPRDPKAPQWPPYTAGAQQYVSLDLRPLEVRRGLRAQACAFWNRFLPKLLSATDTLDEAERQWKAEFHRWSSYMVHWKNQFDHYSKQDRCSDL

SMILES	IC50 [1] [µM]	IC50 [2] [µM]
CC1CCN(c2nccc(NCc3ccccc3)n2)CC1	18.4	3.4
c1ccc(CCNc2ccnc(N3CCCC3)n2)cc1	9.8	
c1ccc(CCNc2ccnc(N3CCSCC3)n2)cc1	26.4	> 100
CN1CCN(c2nccc(NCCc3ccccc3)n2)CC1	20.4	> 100
CC1CCN(c2nccc(NCCc3ccccc3)n2)CC1	8.8	17.7
c1ccc2c(CNc3ccnc(N4CCCC4)n3)cccc2c1	5.5	8.9
c1ccc2c(CNc3ccnc(N4CCOCC4)n3)cccc2c1	14.7	28
c1ccc2c(CNc3ccnc(N4CCSCC4)n3)cccc2c1	12.8	
CN1CCN(c2nccc(NCc3cccc4ccccc34)n2)CC1	17.5	2.6
CN1CCN(c2nccc(NCc3ccccc3)n2)CC1	24.9	> 100
c1ccc(CCNc2ccnc(N3CCOCC3)n2)cc1	19.7	> 100
c1ccc(CNc2ccnc(N3CCCC3)n2)cc1	8.7	26.4
c1ccc(CNc2ccnc(N3CCOCC3)n2)cc1	14	
c1ccc(CNc2ccnc(N3CCSCC3)n2)cc1	23.2	6.1
CC(=O)N1CCN(c2nccc(NCc3ccccc3)n2)CC1	16.6	> 100
CC(C)(C)OC(=O)N1CCN(c2nccc(NCc3ccccc3)n2)CC1	18.8	> 100
c1ccc(CNc2ccnc(N3CCN(C4CCCCC4)CC3)n2)cc1	22.9	7.6

SMILES	IC50 [1] [µM]	IC50 [2] [µM]
CC(C)N1CCN(c2nccc(NCc3ccccc3)n2)CC1	25	3.4
CC(C)C1CCN(c2nccc(NCc3ccccc3)n2)CC1	14.2	6.5
CCCN1CCN(c2nccc(NCc3ccccc3)n2)CC1	15.3	59.9
OCCN1CCN(c2nccc(NCc3ccccc3)n2)CC1	26.4	> 100
COCCN1CCN(c2nccc(NCc3ccccc3)n2)CC1	26.7	> 100
Clc1ccc(CN2CCN(c3nccc(NCc4ccccc4)n3)CC2)cc1	20.2	10.7
Brc1ccc(CN2CCN(c3nccc(NCc4ccccc4)n3)CC2)cc1	25.5	14.3
Fc1ccc(CN2CCN(c3nccc(NCc4ccccc4)n3)CC2)cc1	21.6	7.3
FC(F)(F)c1ccc(CN2CCN(c3nccc(NCc4ccccc4)n3)CC2)cc1	28.8	> 100
c1ccc(CNc2ccnc(NC3CCN(Cc4ccccc4)CC3)n2)cc1	12.4	8.2
[O-][S+]1CCN(c2nccc(NCc3ccccc3)n2)CC1	12.6	> 100
O=S1(=O)CCN(c2nccc(NCc3ccccc3)n2)CC1	24.2	> 100
c1ccc(CNc2ccnc(N3CCNCC3)n2)cc1	15.5	> 100
CC(=O)N1CCN(c2nccc(NCCc3ccccc3)n2)CC1	19.9	> 100
CC1CCN(c2nccc(NCc3cccc4ccccc34)n2)CC1	25.8	2.2
c1ccc2c(NCCCCCCCNc3c4c(nc5ccccc35)CCCC4)c3c(nc2c1)CCCC3		0.01
